# Measured values from patent US20170071944A1, “MODULATORS OF TOLL-LIKE RECEPTORS FOR THE TREATMENT OF HIV” (Gilead Sciences, Inc., priority 2015, published 2017).
# Test system: immune cell subsets in PBMC cultures from HIV-1 infected subjects on cART
# Test: Induced immune cell activation in PBMC cultures from HIV-1 infected subjects on cART (flow cytometry)
# Type: cell-based, human
# Conditions: for B Cells CD69 % / B Cells CD69 Fold vs DMSO / B Cells CD80 % / B Cells CD80 Fold vs DMSO / DCs CD69 % / DCs CD69 Fold vs DMSO / DCs CD80 % / DCs CD80 Fold vs DMSO / CD4+ T Cells CD25 % / CD4+ T Cells CD25 Fold vs DMSO / CD4+ T Cells CD69 % / CD4+ T Cells CD69 Fold vs DMSO / CD4+ T Cells Perforin % / CD4+ T Cells Perforin Fold vs DMSO / CD8+ T Cells CD25 % / CD8+ T Cells CD25 Fold vs DMSO / CD8+ T Cells CD28 % / CD8+ T Cells CD28 Fold vs DMSO / CD8+ T Cells CD38 % / CD8+ T Cells CD38 Fold vs DMSO / CD8+ T Cells CD69 % / CD8+ T Cells CD69 Fold vs DMSO / Monocytes CD11c % / Monocytes CD11c Fold vs DMSO / Monocytes CD69 % / Monocytes CD69 Fold vs DMSO / Monocytes CD80 % / Monocytes CD80 Fold vs DMSO / NK Cells CD25 % / NK Cells CD25 Fold vs DMSO / NK Cells CD69 % / NK Cells CD69 Fold vs DMSO: 2 days, geometric mean; for B Cells CD69 % / B Cells CD69 Fold vs DMSO / B Cells CD80 % / B Cells CD80 Fold vs DMSO / DCs CD69 % / DCs CD69 Fold vs DMSO / DCs CD80 % / DCs CD80 Fold vs DMSO: N = 4; for CD4+ T Cells CD25 % / CD4+ T Cells CD25 Fold vs DMSO / CD4+ T Cells CD69 % / CD4+ T Cells CD69 Fold vs DMSO / CD4+ T Cells Perforin % / CD4+ T Cells Perforin Fold vs DMSO / CD8+ T Cells CD25 % / CD8+ T Cells CD25 Fold vs DMSO / CD8+ T Cells CD28 % / CD8+ T Cells CD28 Fold vs DMSO / CD8+ T Cells CD38 % / CD8+ T Cells CD38 Fold vs DMSO / CD8+ T Cells CD69 % / CD8+ T Cells CD69 Fold vs DMSO / Monocytes CD11c % / Monocytes CD11c Fold vs DMSO / Monocytes CD69 % / Monocytes CD69 Fold vs DMSO / Monocytes CD80 % / Monocytes CD80 Fold vs DMSO / NK Cells CD25 % / NK Cells CD25 Fold vs DMSO / NK Cells CD69 % / NK Cells CD69 Fold vs DMSO: N = 6
# Protocol: TLR8 modulating compound affects activation of distinct cell populations, PBMCs were purified from HIV-1 infected subjects on cART, as described in Example 121 (anonymized participant IDs 184, 185, 188, 189, 190, and 191). […] After incubation, PBMCs were harvested and stained with antibodies conjugated to specific fluorophores (BD Biosciences) to delineate immune cell subsets: CD4 T cells (CD3+ CD4+ CD8-), CD8 T cells (CD3+ CD8+ CD4-), NK cells (CD3-CD56+ CD16+), monocytes (CD3-CD14+), B cells (CD3-CD19+), and peripheral dendritic cells (DCs), defined as positive for HLA-DR and negative for a panel of markers: CD3, CD14, CD16, CD19, CD20, CD56 (Lin-1 lineage panel, BD Biosciences).
# Additional markers of activation, maturation, and effector function were included for cell subsets, as follows: CD4 and CD8 T cells (CD25, CD38, CD69, IFN-γ, granzyme B, perforin, TNF-α), NK cells (CD25, CD69, IFN-γ), monocytes (CD11c, CD16, CD80, CD86, CD163, TNF-α), B cells (CD40, CD69, CD80, CD86), and DC (CD11c, CD69, CD80, CD86, CD123, and CD163). Cells were stained for surface markers (CD3, CD4, CD8, CD11c, CD14, CD16, CD25, CD69, CD80, CD86, CD163), washed, treated with fixation and permeabilization buffer (eBioscience), and stained for intracellular markers (IFN-γ, granzyme B, perforin, TNF-α). Cells were evaluated by flow cytometry on a LSR Fortessa (BD Biosciences), and data was analyzed with FlowJo software (TreeStar).
# Data are expressed as geometric mean percentage (%) and as geometric mean fold-activation (Fold) for each marker and for each PBMC subset obtained from 4 or 6 subjects, as indicated. Fold activation is calculated as a ratio of the % positive for each marker for each PBMC subset at the indicated concentration of the compound of Example 15 relative to % positive for DMSO treated samples. Fold activations that are 1.5 are in bold.
compound,measurement,setting,value
CCCC[C@H](CO)Nc1nc(N)nc2cccnc12 [Example 15],Perforin in CD8+ T cells with treatment,,did not increase
same,B Cells CD69 %,Example 15 10 nM,10.0%
same,B Cells CD69 Fold vs DMSO,Example 15 10 nM,1.2 fold
same,B Cells CD80 %,Example 15 10 nM,2.6%
same,B Cells CD80 Fold vs DMSO,Example 15 10 nM,1.6 fold
same,DCs CD69 %,Example 15 10 nM,0.3%
same,DCs CD69 Fold vs DMSO,Example 15 10 nM,0.1 fold
same,DCs CD80 %,Example 15 10 nM,49.8%
same,DCs CD80 Fold vs DMSO,Example 15 10 nM,1.8 fold
same,CD4+ T Cells CD25 %,Example 15 10 nM,1.5%
same,CD4+ T Cells CD25 Fold vs DMSO,Example 15 10 nM,0.6 fold
same,CD4+ T Cells CD69 %,Example 15 10 nM,5.7%
same,CD4+ T Cells CD69 Fold vs DMSO,Example 15 10 nM,0.7 fold
same,CD4+ T Cells Perforin %,Example 15 10 nM,11.8%
same,CD4+ T Cells Perforin Fold vs DMSO,Example 15 10 nM,1.5 fold
same,CD8+ T Cells CD25 %,Example 15 10 nM,0.2%
same,CD8+ T Cells CD25 Fold vs DMSO,Example 15 10 nM,0.6 fold
same,CD8+ T Cells CD28 %,Example 15 10 nM,0.1%
same,CD8+ T Cells CD28 Fold vs DMSO,Example 15 10 nM,0.9 fold
same,CD8+ T Cells CD38 %,Example 15 10 nM,25.3%
same,CD8+ T Cells CD38 Fold vs DMSO,Example 15 10 nM,0.9 fold
same,CD8+ T Cells CD69 %,Example 15 10 nM,3.7%
same,CD8+ T Cells CD69 Fold vs DMSO,Example 15 10 nM,0.8 fold
same,Monocytes CD11c %,Example 15 10 nM,0.4%
same,Monocytes CD11c Fold vs DMSO,Example 15 10 nM,0.6 fold
same,Monocytes CD69 %,Example 15 10 nM,0.8%
same,Monocytes CD69 Fold vs DMSO,Example 15 10 nM,0.3 fold
same,Monocytes CD80 %,Example 15 10 nM,33.0%
same,Monocytes CD80 Fold vs DMSO,Example 15 10 nM,1.1 fold
same,NK Cells CD25 %,Example 15 10 nM,0.2%
same,NK Cells CD25 Fold vs DMSO,Example 15 10 nM,0.4 fold
same,NK Cells CD69 %,Example 15 10 nM,0.8%
same,NK Cells CD69 Fold vs DMSO,Example 15 10 nM,0.4 fold
same,B Cells CD69 %,Example 15 100 nM,3.9%
same,B Cells CD69 Fold vs DMSO,Example 15 100 nM,0.5 fold
same,B Cells CD80 %,Example 15 100 nM,1.7%
same,B Cells CD80 Fold vs DMSO,Example 15 100 nM,1.1 fold
same,DCs CD69 %,Example 15 100 nM,1.0%
same,DCs CD69 Fold vs DMSO,Example 15 100 nM,0.4 fold
same,DCs CD80 %,Example 15 100 nM,67.2%
same,DCs CD80 Fold vs DMSO,Example 15 100 nM,2.4 fold
same,CD4+ T Cells CD25 %,Example 15 100 nM,3.9%
same,CD4+ T Cells CD25 Fold vs DMSO,Example 15 100 nM,1.7 fold
same,CD4+ T Cells CD69 %,Example 15 100 nM,7.7%
same,CD4+ T Cells CD69 Fold vs DMSO,Example 15 100 nM,1.0 fold
same,CD4+ T Cells Perforin %,Example 15 100 nM,10.4%
same,CD4+ T Cells Perforin Fold vs DMSO,Example 15 100 nM,1.3 fold
same,CD8+ T Cells CD25 %,Example 15 100 nM,0.3%
same,CD8+ T Cells CD25 Fold vs DMSO,Example 15 100 nM,1.0 fold
same,CD8+ T Cells CD28 %,Example 15 100 nM,0.1%
same,CD8+ T Cells CD28 Fold vs DMSO,Example 15 100 nM,1.1 fold
same,CD8+ T Cells CD38 %,Example 15 100 nM,29.2%
same,CD8+ T Cells CD38 Fold vs DMSO,Example 15 100 nM,1.0 fold
same,CD8+ T Cells CD69 %,Example 15 100 nM,3.4%
same,CD8+ T Cells CD69 Fold vs DMSO,Example 15 100 nM,0.7 fold
same,Monocytes CD11c %,Example 15 100 nM,3.6%
same,Monocytes CD11c Fold vs DMSO,Example 15 100 nM,5.2 fold
same,Monocytes CD69 %,Example 15 100 nM,1.8%
same,Monocytes CD69 Fold vs DMSO,Example 15 100 nM,0.6 fold
same,Monocytes CD80 %,Example 15 100 nM,47.7%
same,Monocytes CD80 Fold vs DMSO,Example 15 100 nM,1.6 fold
same,NK Cells CD25 %,Example 15 100 nM,0.8%
same,NK Cells CD25 Fold vs DMSO,Example 15 100 nM,1.6 fold
same,NK Cells CD69 %,Example 15 100 nM,1.1%
same,NK Cells CD69 Fold vs DMSO,Example 15 100 nM,0.6 fold
